Several values for one entry are separate records, joined by “and”; a condition that tells them apart may be missing. Identical values can stand only once.
System: 227483-062-R1-J1-PDC complex spheroids with HUVEC/MSC, viability
Assay: Anticancer human tumor 227483-062-R1-J1-PDC patient-derived pancreatic carcinoma cell line growth inhibition [CLK]
Conditions: for viability, T/C: stronger effect = lower value
In short: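 Patient-derived tumor cells grown as complex spheroids with HUVEC endothelial cells and mesenchymal stem cells, treated with drug combinations. Concentrations descend in half-log steps from near clinical Cmax, or from 10 microM if Cmax unknown.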

[1] = curve of first compound, second compound 0.0316 µM
[2] = curve of first compound, second compound 0.1 µM
[3] = curve of first compound, second compound 0.316 µM
[4] = curve of first compound, second compound 1 µM
[5] = curve of first compound, second compound 3.16 µM
[6] = curve of first compound, second compound 10 µM
[7] = second compound 0.0316 µM, first compound 0.0316 µM
[8] = second compound 0.0316 µM, first compound 0.1 µM
[9] = second compound 0.0316 µM, first compound 0.316 µM
[10] = second compound 0.0316 µM, first compound 1 µM
[11] = second compound 0.0316 µM, first compound 3.16 µM
[12] = second compound 0.0316 µM, first compound 10 µM
[13] = second compound 0.1 µM, first compound 0.0316 µM
[14] = second compound 0.1 µM, first compound 0.1 µM
[15] = second compound 0.1 µM, first compound 0.316 µM
[16] = second compound 0.1 µM, first compound 1 µM
[17] = second compound 0.1 µM, first compound 3.16 µM
[18] = second compound 0.1 µM, first compound 10 µM
[19] = second compound 0.316 µM, first compound 0.0316 µM
[20] = second compound 0.316 µM, first compound 0.1 µM
[21] = second compound 0.316 µM, first compound 0.316 µM
[22] = second compound 0.316 µM, first compound 1 µM
[23] = second compound 0.316 µM, first compound 3.16 µM
[24] = second compound 0.316 µM, first compound 10 µM
[25] = second compound 1 µM, first compound 0.0316 µM
[26] = second compound 1 µM, first compound 0.1 µM
[27] = second compound 1 µM, first compound 0.316 µM
[28] = second compound 1 µM, first compound 1 µM
[29] = second compound 1 µM, first compound 3.16 µM
[30] = second compound 1 µM, first compound 10 µM
[31] = second compound 3.16 µM, first compound 0.0316 µM
[32] = second compound 3.16 µM, first compound 0.1 µM
[33] = second compound 3.16 µM, first compound 0.316 µM
[34] = second compound 3.16 µM, first compound 1 µM
[35] = second compound 3.16 µM, first compound 3.16 µM
[36] = second compound 3.16 µM, first compound 10 µM
[37] = second compound 10 µM, first compound 0.0316 µM
[38] = second compound 10 µM, first compound 0.1 µM
[39] = second compound 10 µM, first compound 0.316 µM
[40] = second compound 10 µM, first compound 1 µM
[41] = second compound 10 µM, first compound 3.16 µM
[42] = second compound 10 µM, first compound 10 µM
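Further: spheroids exposed to compounds for seven days before readout.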
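Wherever viability, T/C is given: percent of DMSO vehicle control luminescence as 100% viability.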

O=C(c1cc(Cc2n[nH]c(=O)c3ccccc23)ccc1F)N1CCN(C(=O)C2CC2)CC1
viability, T/C (compound 0.0316 µM): 98% and 94.5%
viability, T/C (compound 0.1 µM): 100% and 97.8%
viability, T/C (compound 0.316 µM): 101% and 98.4%
viability, T/C (compound 1 µM): 107% and 99.2%
viability, T/C (compound 3.16 µM): 114% and 91.3%
viability, T/C (compound 10 µM): 91.4% and 100%
IC50 (curve of compound): > 10000 nM

O=C(c1cc(Cc2n[nH]c(=O)c3ccccc23)ccc1F)N1CCN(C(=O)C2CC2)CC1 + CNC(=O)c1ccc(Nc2nc(OC3CCCC3)c3c(-c4ccc5nc(C)oc5c4)c[nH]c3n2)c(OC)c1
IC50 [1]: > 10000 nM
IC50 [2]: > 10000 nM
IC50 [3]: > 10000 nM
IC50 [4]: > 10000 nM
IC50 [5]: 44.9 nM
IC50 [6]: < 31.6 nM
viability, T/C [7]: 86.9%
viability, T/C [8]: 84.9%
viability, T/C [9]: 119%
viability, T/C [10]: 93.1%
viability, T/C [11]: 100%
viability, T/C [12]: 98.4%
viability, T/C [13]: 86.1%
viability, T/C [14]: 117%
viability, T/C [15]: 89.3%
viability, T/C [16]: 89.5%
viability, T/C [17]: 91.5%
viability, T/C [18]: 91.3%
viability, T/C [19]: 86.8%
viability, T/C [20]: 92.9%
viability, T/C [21]: 78.5%
viability, T/C [22]: 89.3%
viability, T/C [23]: 95.5%
viability, T/C [24]: 99%
viability, T/C [25]: 63.3%
viability, T/C [26]: 60.9%
viability, T/C [27]: 65.4%
viability, T/C [28]: 61.1%
viability, T/C [29]: 80.1%
viability, T/C [30]: 66.3%
viability, T/C [31]: 50.9%
viability, T/C [32]: 54.5%
viability, T/C [33]: 40.5%
viability, T/C [34]: 48.9%
viability, T/C [35]: 50.3%
viability, T/C [36]: 47.7%
viability, T/C [37]: 37%
viability, T/C [38]: 34%
viability, T/C [39]: 35.3%
viability, T/C [40]: 42.1%
viability, T/C [41]: 42.3%
viability, T/C [42]: 39%

C#Cc1c(F)ccc2cc(O)cc(-c3ncc4c(N5CC6CCC(C5)N6)nc(OCC56CCCN5CC(F)C6)nc4c3F)c12 (stereo not drawn) + CNC(=O)c1ccc(Nc2nc(OC3CCCC3)c3c(-c4ccc5nc(C)oc5c4)c[nH]c3n2)c(OC)c1
IC50 [1]: > 10000 nM
IC50 [2]: > 10000 nM
IC50 [3]: > 10000 nM
IC50 [4]: 5620 nM
IC50 [5]: 301 nM
IC50 [6]: < 31.6 nM
viability, T/C [7]: 101%
viability, T/C [8]: 110%
viability, T/C [9]: 112%
viability, T/C [10]: 131%
viability, T/C [11]: 122%
viability, T/C [12]: 87.7%
viability, T/C [13]: 96.2%
viability, T/C [14]: 120%
viability, T/C [15]: 116%
viability, T/C [16]: 111%
viability, T/C [17]: 127%
viability, T/C [18]: 68.5%
viability, T/C [19]: 106%
viability, T/C [20]: 97.7%
viability, T/C [21]: 94.8%
viability, T/C [22]: 100%
viability, T/C [23]: 87.8%
viability, T/C [24]: 58.9%
viability, T/C [25]: 78.3%
viability, T/C [26]: 71.9%
viability, T/C [27]: 74.7%
viability, T/C [28]: 61.9%
viability, T/C [29]: 61.1%
viability, T/C [30]: 41.6%
viability, T/C [31]: 49.2%
viability, T/C [32]: 57.4%
viability, T/C [33]: 51%
viability, T/C [34]: 41.9%
viability, T/C [35]: 43.8%
viability, T/C [36]: 33.5%
viability, T/C [37]: 42.1%
viability, T/C [38]: 38%
viability, T/C [39]: 43.7%
viability, T/C [40]: 34.6%
viability, T/C [41]: 34.8%
viability, T/C [42]: 28.3%

COc1c(OCCCN2CCOCC2)ccc2c3n(c(=NC(=O)c4cnc(N)nc4)nc12)CCN3 + CN1CCN(c2cc(C(=O)Nc3cc4cc(-c5cnn(C)c5)ccc4cn3)ccn2)CC1
IC50 [1]: 194 nM
IC50 [2]: 25 nM
IC50 [3]: < 3.16 nM
IC50 [4]: < 3.16 nM
IC50 [5]: < 3.16 nM
IC50 [6]: < 3.16 nM
viability, T/C (second compound 0.0316 µM, first compound 0.00316 µM): 114%
viability, T/C (second compound 0.0316 µM, first compound 0.01 µM): 96.6%
viability, T/C [7]: 74.2%
viability, T/C [8]: 60.9%
viability, T/C [9]: 43.3%
viability, T/C [10]: 27.8%
viability, T/C (second compound 0.1 µM, first compound 0.00316 µM): 60.1%
viability, T/C (second compound 0.1 µM, first compound 0.01 µM): 65%
viability, T/C [13]: 41%
viability, T/C [14]: 38.8%
viability, T/C [15]: 23.2%
viability, T/C [16]: 16.7%
viability, T/C (second compound 0.316 µM, first compound 0.00316 µM): 6.51%
viability, T/C (second compound 0.316 µM, first compound 0.01 µM): 6.64%
viability, T/C [19]: 5.96%
viability, T/C [20]: 6.61%
viability, T/C [21]: 5.11%
viability, T/C [22]: 4.05%
viability, T/C (second compound 1 µM, first compound 0.00316 µM): 3.87%
viability, T/C (second compound 1 µM, first compound 0.01 µM): 1.44%
viability, T/C [25]: 1.35%
viability, T/C [26]: 1.23%
viability, T/C [27]: 1.21%
viability, T/C [28]: 1.6%
viability, T/C (second compound 3.16 µM, first compound 0.00316 µM): 2.64%
viability, T/C (second compound 3.16 µM, first compound 0.01 µM): 2.53%
viability, T/C [31]: 2.97%
viability, T/C [32]: 1.79%
viability, T/C [33]: 1.84%
viability, T/C [34]: 1.94%
viability, T/C (second compound 10 µM, first compound 0.00316 µM): 3.49%
viability, T/C (second compound 10 µM, first compound 0.01 µM): 3.33%
viability, T/C [37]: 1.42%
viability, T/C [38]: 1.13%
viability, T/C [39]: 3.58%
viability, T/C [40]: 1.55%
